The text below walks through data of paper PMC5944028, “Nonclinical and clinical pharmacological characterization of the potent and selective cathepsin K inhibitor MIV-711” (Journal of Translational Medicine, 2018).

Each structure is given as a SMILES string.

One data set has as its target T1, rabbit cathepsin K (Oryctolagus cuniculus, UniProt P43236).
T1 construct: made in house; host or cells: E. coli
Description: Recombinant enzyme assay, rabbit cathepsin K. It counts as biochemical. As to conditions: footnote a: IC50. The source says:
(§1) Recombinant cathepsin K enzymes from all species were expressed in E. coli, purified and activated. Human cathepsin F and cathepsin S were expressed in Baculovirus, purified and activated. Purified human cathepsins B and H (Athens Research Technology), cathepsin L (Calbiochem), and cathepsin V (R & D Systems) were purchased.
(§2) H-D-Ala_Leu-Lys-AMC was used as the substrate in assays of cathepsin K from non-rodent species (human, dog, rabbit and guinea pig), and Z-Leu-Arg-AMC was used as the substrate in assays of cathepsin K from rodent species (mouse and rat). […]
(§3) Assays were carried out in white polystyrene 96-well plates in a final volume of 100 µL. […] Plates were read in a Fluoroskan Ascent (Thermo Labsystems, Helsinki, Finland) in kinetic mode, with excitation and emission filters of 390 and 460 nm, respectively. Rates were determined by linear regression of the fluorescence/time data in Excel. Rates were fitted by non-linear regression to either the competitive inhibition equation, with the substrate concentration fixed at the value in the assay and the KM fixed to the value previously determined, or the IC50 equation using GraphPad Prism (GraphPad, version 6, San Diego, USA) to obtain Ki or IC50 values, respectively.

A further data set addresses T2, human cathepsin L (Homo sapiens, UniProt P07711).
T2 construct: purchased Calbiochem
Description: Enzyme assay, human cathepsin L. It counts as biochemical. The note with it: geometric mean.
Source text: as §1, §2, §3

Another data set addresses T3, rat cathepsin K (Rattus norvegicus, UniProt O35186).
T3 construct: made in house; host or cells: E. coli
Description: Recombinant enzyme assay, rat cathepsin K. It counts as biochemical. As to conditions: footnote a: IC50.
Source text: as §1, §2, §3

The test system of another data set is urine CTX-II. Description: Monkey urine CTX-II, multiple doses. It counts as in vivo, cynomolgus monkeys (Macaca fascicularis). As to the method: Biomarkers such as NTX-I (bone resorption) and CTX-II (cartilage degradation) are typically measured in urine. Additional experiments in which urine was collected were therefore performed. In these experiments, four cynomolgus monkeys (Macaca fascicularis) were used (Aptuit, Edinburgh, UK). The animals were healthy young females weighing 3.5–4 kg. Animals were dosed with vehicle or MIV-711 via oral gavage at a dose volume of 5 mL/kg between 7:30 and 8:30 a.m. Animals first received vehicle via oral gavage for five consecutive days. After a washout period, the animals then received MIV-711 (30 µmol/kg) via oral gavage for five consecutive days.
Urine was collected between 8–12 a.m., 12 a.m.–4 p.m. and 4 p.m.–8 a.m. on Day 1 and Day 5 of respective treatment. Biomarkers were measured in each urine sample, corrected for creatinine, and the mean value of the three samples on Day 1 and Day 5 was calculated. The effect of MIV-711 was evaluated by comparing biomarkers in urine samples collected on Day 1 and Day 5 with respective vehicle sample. [drawing 3]
The quantification of CTX-I in monkey plasma samples and human serum samples was performed using a commercially available kit (Serum CrossLaps ELISA, IDS Nordic, Herlev, Denmark). The levels of CTX-I in monkey urine samples were measured using a commercially available kit (Urine BETA CrossLaps ELISA, IDS Nordic). […]

A further data set has as its target T4, human cathepsin B (Homo sapiens, UniProt P07858).
T4 construct: purchased Athens Research Technology
Description: Enzyme assay, human cathepsin B. It counts as biochemical.
Source text: as §1, §2, §3

The test system of data set [1] is differentiated human osteoclasts. Also on record: method as in PMID 20097319. The note with it: bovine bone slices; read-out: IC50 in bone resorption assay; cited from earlier work.
Data set [2] has as its system > 70 different ion channels, receptors, transporters and CYP enzymes. Put plainly: PanLabs broad panel. As to conditions: 10 µmol/L. The protocol:
MIV-711 was analyzed against > 70 different ion channels, receptors, transporters and cytochrome P450 (CYP) enzymes at a concentration of 10 µmol/L at PanLabs (Taipei, Taiwan).

T1 sequence (P43236 115-329): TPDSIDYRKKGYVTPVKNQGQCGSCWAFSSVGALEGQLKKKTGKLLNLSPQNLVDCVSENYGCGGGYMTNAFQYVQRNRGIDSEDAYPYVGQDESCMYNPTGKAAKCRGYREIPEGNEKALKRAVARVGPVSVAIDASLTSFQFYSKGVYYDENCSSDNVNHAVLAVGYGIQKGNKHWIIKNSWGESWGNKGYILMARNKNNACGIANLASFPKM
T3 sequence (O35186 115-329): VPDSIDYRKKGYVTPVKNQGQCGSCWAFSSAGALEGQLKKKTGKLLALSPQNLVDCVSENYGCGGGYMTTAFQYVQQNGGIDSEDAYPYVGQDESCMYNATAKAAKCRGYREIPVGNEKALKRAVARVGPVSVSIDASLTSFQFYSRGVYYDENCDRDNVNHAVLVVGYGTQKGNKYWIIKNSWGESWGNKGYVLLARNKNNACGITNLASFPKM
T2 sequence (P07711 114-333): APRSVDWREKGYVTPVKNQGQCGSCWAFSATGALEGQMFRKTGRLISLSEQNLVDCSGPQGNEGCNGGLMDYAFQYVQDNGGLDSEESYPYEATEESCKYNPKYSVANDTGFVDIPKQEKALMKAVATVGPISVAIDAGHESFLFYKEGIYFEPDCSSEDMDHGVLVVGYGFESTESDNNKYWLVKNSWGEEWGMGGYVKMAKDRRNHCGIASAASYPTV

For the molecule `C#C[C@@H]1CN(C(=O)[C@H](CC(C)C)NC(=O)c2ccc(-c3nc(N4CCN(C)CC4)sc3F)cc2)[C@@H]2C(=O)CO[C@H]12` [MIV-711], the IC50 on rabbit cathepsin K was 3.3 nM; on rat cathepsin K it was 240 nM; in data set [1], 37 nM. Moreover, the Ki on human cathepsin L is 1700 nM; at human cathepsin B, 1300 nM. Moreover, the “Reduction of urinary CTX-II compared to vehicle” value with urine CTX-II (30 µmol/kg p.o. once daily for 5 days, creatinine-corrected) is recorded as 71%. For the same molecule, in the data set with urine CTX-II (single dose 30 µmol/kg p.o. (Day 1)), the “Effect on urinary CTX-II compared to vehicle” value was “unaffected”. In data set [2], the “Responses (more than 50% inhibition) in broad panel” value is “No significant responses”.

For orientation: IC50 means the concentration that gives 50% inhibition. Broadly, the Ki is the equilibrium dissociation constant of an inhibitor or competing ligand from its target.
